The values that follow are results of earlier work, collected in patent publication US8828877B2, “Etching solution and trench isolation structure-formation process employing the same” (AZ Electronic Materials USA Corp., priority 2009, dated 2014).

The conditions of series [1]: in water at 20° C.; "any" = can mix with water in any proportion.
For series [2] the following is noted: for δH: Hansen solubility parameter, strength of hydrogen bond; for Organic solvent δH: as given in Table 2 for the solvent of the etching solution.

Each structure is given as a SMILES string.

`CC(C)=O` [Acetone]: in series [1], the Saturation solubility entry was “any”. Moreover, in series [2], the δH is recorded as 7.0 and the “Organic solvent δH” value was 7.0. `C=CCOC(=O)CC(C)=O` [Allyl acetoacetate]: the Saturation solubility in series [1] is on record as 5.0 wt %. Besides, the δH in series [2] is 8.6. `CCOCC` [Diethyl ether]: the Saturation solubility in series [1] is given as 6.9 wt %. The δH in series [2] is 5.1. As for `CCCCOCCOCCOC(C)=O` [Diethyl glycol butyl ether acetate], in series [1], the Saturation solubility is 6.5 wt %. Further, the δH in series [2] is given as 8.2. For `CCCCOCCOCCO` [Diethyl glycol monobutyl ether], the Saturation solubility in series [1] is reported as 6.5 wt %. Also, the δH in series [2] is given as 10.6. On to `CCC(=O)CC` [Diethyl ketone], for which the Saturation solubility in series [1] is given as 5.0 wt %. In addition, the δH in series [2] is 4.7. On to `COCOC` [Dimethoxymethane], for which, in series [1], the Saturation solubility is on record as 32.3 wt %. For the same compound, the δH in series [2] is 8.6. On to `COC` [Dimethyl ether], for which, in series [1], the Saturation solubility is 32.8 wt %. Also, the δH in series [2] was 5.7. As for `COC(C)COC(C)COC(C)=O` (stereo not shown) [Dipropylene glycol monomethyl ether acetate], the Saturation solubility in series [1] was 12.0 wt %. For the same compound, the δH in series [2] was 8.0. Turning to `CCOC(C)=O` [Ethyl acetate], the δH in series [2] was 7.2.

As to `COCCOC` [Ethylene glycol dimethyl ether], the Saturation solubility entry in series [1] is given as “any”.

In the case of `CCOCCOC(C)=O` [Ethylene glycol monoethyl ether acetate], the Saturation solubility in series [1] is 23.0 wt %. Besides, the δH in series [2] was 10.6. On to `COCCOC(C)=O` [Ethylene glycol monomethyl ether acetate], for which the Saturation solubility result in series [1] is reported as “any”. For the same compound, in series [2], the δH was 11.6 and the “Organic solvent δH” value is on record as 10.6.

`C=C(C)C(=O)O` [Methacrylic acid]: the Saturation solubility in series [1] is on record as 9.7 wt %. For the same compound, in series [2], the δH is listed as 10.2. Consider `COC(C)=O` [Methyl acetate], for which, in series [1], the Saturation solubility is 25.0 wt %. Besides, in series [2], the δH is 7.6. In the case of `COC(=O)CC(C)=O` [Methyl acetoacetate], the Saturation solubility in series [1] is given as 46.0 wt %. Moreover, in series [2], the δH is 8.9.

As for `CCOC` [Methyl ethyl ether], the Saturation solubility in series [1] is listed as no less than 5.0 wt %. The δH in series [2] is 6.2. Regarding `CC(=O)C=O` [Methylglyoxal], in series [1], the Saturation solubility is no less than 40.0 wt %. For `CCC=O` [Propion aldehyde], the Saturation solubility in series [1] is reported as 20.0 wt %. With `CCOCC(C)OC(C)=O` (stereo not shown) [Propylene glycol monoethyl ether acetate], the Saturation solubility in series [1] is no less than 5.0 wt %. Moreover, in series [2], the δH was 9.0.

On to `CCOCC(C)O` (stereo not shown) [Propylene glycol monoethyl ether], for which the Saturation solubility entry in series [1] is on record as “any”. In addition, the δH in series [2] is 10.5. Consider `COCC(C)OC(C)=O` (stereo not shown) [Propylene glycol monomethyl ether acetate], for which, in series [1], the Saturation solubility is reported as 19.0 wt %. Also, in series [2], the δH is 9.8 and the “Organic solvent δH” value is 9.0. Consider `COCC(C)O` (stereo not shown) [Propylene glycol monomethyl ether], for which, in series [2], the δH is on record as 11.6 and the “Organic solvent δH” value was 10.5. Take `COC(C)COC(C)COC(C)CO` (stereo not shown) [Tripropylene glycol monomethyl ether]: the Saturation solubility result in series [1] is recorded as “any”. The δH in series [2] was 10.4. Turning to `CC(C)O` [isopropyl alcohol, reference compound], in series [2], the δH is 16.4 and the “Organic solvent δH” value is 16.4.
